Patent US9695129B2, “Parasiticidal compositions comprising benzimidazole derivatives, methods and uses thereof” (MERIAL INC., priority 2012, dated 2017)
Like-named read-outs stand apart in the source and are kept apart here.

System: adult F. hepatica
Test: In vitro test on adult F. hepatica (viability scale, effective concentration)
Set-up: species or system Fasciola hepatica
Settings: for minimal effective concentration: Fasciola hepatica, read-out: Effective in vitro concentration
Experimental: Representative compounds of formula (I), formula (II), and formula (III) were tested in vitro against F. hepatica as follows. Adult F. hepatica (fluke) were collected from infected bovine livers obtained from a local abattoir (Basel, Switzerland). The worms were quickly washed with 0.9% (w/v) NaCl and placed in 6 or 12-well plates (Costar). Culture medium in each well contained RPMI 1640 (Gibco) at 37° C., which was supplemented with antibiotics (50 μg/ml streptomycin and 50 IU/ml penicillin; Gibco) and 80 μg/ml of a haemin solution. The haemin solution was prepared as follows: 5 mg haemin was dissolved in 1 ml of 0.1M aqueous solution of NaOH, and 3.95 ml of PBS (pH=7.4) and 0.05 ml of 1M HCl were added to adjust the pH to 7.1-7.4 (Keiser and Morson, 2008). Cultures were kept at 37° C. in an atmosphere of 5% CO2. To monitor the temporal effects of test compounds in vitro, 3 flukes were incubated for 72 h in the presence of 50 or 100 μg/ml of each test compound. At 24, 48, and 72 h, worms were examined using a dissecting microscope. For the adult worms, a viability scale ranging from 4 (normal movements) to 1 (death; no movement observed for two min using a microscope) was used.
(§1) Table 1 lists representative compounds of formula (I) of the present invention and their effective in vitro concentrations against F. hepatica. All compounds were tested in vitro on the adult stage of F. hepatica as described above. Each data point refers to at least two independent experiments. For Table 1, R2 is H, R4 is Cl and R5 is H.
as §1, with “2” for “1”, “(II)” for “(I)”, “2 compounds, the 2-position of the benzimidazole ring” for “1, R2”, “methylthio, R6” for “H, R4”, “H” for “Cl”, “R9” for “R5”
as §1, with “3” for “1”, “(III)” for “(I)”, “3, the 2-position of the benzimidazole ring” for “1, R2”, “trifluoromethylthio, R10” for “H, R4”, “H” for “Cl”, “R13” for “R5”

[1] = Table 3, formula (III), adult flukes incubated up to 72 h, at least two independent experiments
[2] = Table 2, formula (II), adult flukes incubated up to 72 h, at least two independent experiments
[3] = Table 1, formula (I), adult flukes incubated up to 72 h, at least two independent experiments

Row | Molecule | minimal effective concentration [3] | other results
1 | 6-chloro-5-(2-butyl)-cyclopropyl-2-trifluoromethylthiobenzimidazole [Compound 108] | – | Effective in vitro concentration [1]: 10 µg/mL
2 | CSc1nc2cc(Cl)c(Oc3ccccc3Br)cc2[nH]1 [Compound 014, 6-chloro-5-(2-bromophenoxy)-2-methylthiobenzimidazole] | – | minimal effective concentration [2]: 50 µg/mL
3 | CSc1nc2cc(Cl)c(Oc3cccc(C)c3C)cc2[nH]1 [Compound 019, 6-chloro-5-(2,3-dimethylphenoxy)-2-methylthiobenzimidazole] | – | minimal effective concentration [2]: 20 µg/mL
4 | CCCCCCc1cc2[nH]c(SC)nc2cc1Cl [Compound 024, 6-chloro-5-hexyl-2-methylthiobenzimidazole] | – | minimal effective concentration [2]: 50 µg/mL
5 | FC(F)(F)Sc1nc2cc(Cl)c(Oc3cccc(Cl)c3Cl)cc2[nH]1 [Compound 049, 6-chloro-5-(2,3-dichlorophenoxy)-2-trifluoromethylthiobenzimidazole] | – | minimal effective concentration [1]: 10 µg/mL
6 | FC(F)(F)Sc1nc2cc(Cl)c(-c3ccc(Cl)cc3)cc2[nH]1 [Compound 102, 6-chloro-5-(4-chlorophenyl)-2-trifluoromethylthiobenzimidazole] | – | minimal effective concentration (72 h): 5 µg/mL
7 | FC(F)(F)Sc1nc2cc(Cl)c(-c3cccc(Cl)c3)cc2[nH]1 [Compound 103, 6-chloro-5-(3-chlorophenyl)-2-trifluoromethylthiobenzimidazole] | – | minimal effective concentration (72 h): 5 µg/mL
8 | FC(F)(F)c1nc2cc(Cl)c(-c3cc(Cl)cc(Cl)c3)cc2[nH]1 [Compound 247, 6-chloro-5-(3,5-dichlorophenyl)-2-trifluoromethylbenzimidazole] | – | minimal effective concentration (72 h): 5 µg/mL
9 | FC(F)(F)c1nc2cc(Cl)c(-c3ccc(Cl)c(Cl)c3)cc2[nH]1 [Compound 258, 6-chloro-5-(3,4-dichlorophenyl)-2-trifluoromethylbenzimidazole] | 5 µg/mL | –
10 | FC(F)(F)c1nc2cc(Cl)c(-c3ccc(Cl)cc3Cl)cc2[nH]1 [Compound 260, 6-chloro-5-(2,4-dichlorophenyl)-2-trifluoromethylbenzimidazole] | 5 µg/mL | –
11 | FC(F)(F)c1nc2cc(Cl)c(-c3cc(Cl)cc(Cl)c3Cl)cc2[nH]1 [Compound 261, 6-chloro-5-(2,3,5-trichlorophenyl)-2-trifluoromethylbenzimidazole] | – | minimal effective concentration (72 h): 5 µg/mL
12 | FC(F)(F)C(F)(F)c1nc2cc(Cl)c(-c3cccc(Cl)c3Cl)cc2[nH]1 [Compound 262-100, 5-chloro-6-(2,3-dichlorophenyl)-2-(pentafluoroethyl)-1H-1,3-benzodiazole] | 10 µg/mL | –
13 | FC(F)(F)c1nc2cc(Cl)c(Oc3ccc(Cl)cc3Cl)cc2[nH]1 [Compound 275, 5-chloro-6-(2,4-dichlorophenoxy)-2-(trifluoromethyl)-1H-1,3-benzodiazole] | 10 µg/mL | –
14 | FC(F)(F)C(F)(F)c1nc2cc(Cl)c(Oc3ccc(Cl)cc3Cl)cc2[nH]1 [Compound 276, 5-chloro-6-(2,4-dichlorophenoxy)-2-(pentafluoroethyl)-1H-1,3-benzodiazole] | < 5 µg/mL | –
15 | Fc1ccc(Oc2cc3[nH]c(C(F)(F)F)nc3cc2Cl)c(F)c1 [Compound 277, 5-chloro-6-(2,4-difluorophenoxy)-2-(trifluoromethyl)-1H-1,3-benzodiazole] | 10 µg/mL | –
16 | Fc1ccc(Oc2cc3[nH]c(C(F)(F)C(F)(F)F)nc3cc2Cl)c(F)c1 [Compound 278, 5-chloro-6-(2,4-difluorophenoxy)-2-(pentafluoroethyl)-1H-1,3-benzodiazole] | < 5 µg/mL | –
17 | Fc1ccc(Oc2cc3[nH]c(C(F)(F)C(F)(F)C(F)(F)F)nc3cc2Cl)c(F)c1 [Compound 279, 5-chloro-6-(2,4-difluorophenoxy)-2-(heptafluoropropyl)-1H-1,3-benzodiazole] | – | minimal effective concentration (72 h): < 5 µg/mL

Row | Molecule | minimal effective concentration [3] | other results
18 | Fc1ccc(-c2cc3[nH]c(C(F)(F)F)nc3cc2Cl)cc1 [Compound 280, 5-chloro-6-(4-fluorophenyl)-2-(trifluoromethyl)-1H-1,3-benzodiazole] | 20 µg/mL | –
19 | Fc1ccc(-c2cc3[nH]c(C(F)(F)C(F)(F)F)nc3cc2Cl)cc1 [Compound 281, 5-chloro-6-(4-fluorophenyl)-2-(pentafluoroethyl)-1H-1,3-benzodiazole] | 5 µg/mL | –
20 | Fc1ccc(Oc2cc3[nH]c(C(F)(F)C(F)(F)F)nc3cc2Cl)cc1 [Compound 283, 5-chloro-6-(4-fluorophenoxy)-2-(pentafluoroethyl)-1H-1,3-benzodiazole] | < 2.5 µg/mL | –
21 | Fc1ccc(Oc2cc3[nH]c(C(F)(F)C(F)(F)C(F)(F)F)nc3cc2Cl)cc1 [Compound 284, 5-chloro-6-(4-fluorophenoxy)-2-(heptafluoropropyl)-1H-1,3-benzodiazole] | – | minimal effective concentration (72 h): 5 µg/mL
22 | FC(F)(F)c1ccc(Oc2cc3[nH]c(C(F)(F)F)nc3cc2Cl)cc1 [Compound 286, 5-chloro-2-(trifluoromethyl)-6-[4-(trifluoromethyl)phenoxy]-1H-1,3-benzodiazole] | 20 µg/mL | –
23 | FC(F)(F)c1ccc(Oc2cc3[nH]c(C(F)(F)C(F)(F)F)nc3cc2Cl)cc1 [Compound 287, 5-chloro-2-(pentafluoroethyl)-6-[4-(trifluoromethyl)phenoxy]-1H-1,3-benzodiazole] | 50 µg/mL | –
24 | FC(F)(F)c1ccc(Oc2cc3[nH]c(C(F)(F)C(F)(F)C(F)(F)F)nc3cc2Cl)cc1 [Compound 288, 5-chloro-2-(heptafluoropropyl)-6-[4-(trifluoromethyl)phenoxy]-1H-1,3-benzodiazole] | 20 µg/mL | –
25 | FC(F)(F)c1ccc(-c2cc3[nH]c(C(F)(F)C(F)(F)F)nc3cc2Cl)cc1 [Compound 289, 5-chloro-2-(pentafluoroethyl)-6-[4-(trifluoromethyl)phenyl]-1H-1,3-benzodiazole] | < 2.5 µg/mL | –
26 | FC(F)(F)c1ccc(Oc2cc3[nH]c(C(F)(F)C(F)(F)F)nc3cc2Cl)c(Cl)c1 [Compound 296, 5-chloro-6-[2-chloro-4-(trifluoromethyl)phenoxy]-2-(pentafluoroethyl)-1H-1,3-benzodiazole] | < 2.5 µg/mL | –
27 | FC(F)(F)c1ccc(-c2cc3[nH]c(C(F)(F)F)nc3cc2Cl)c(C(F)(F)F)c1 [Compound 301, 6-[2,4-bis(trifluoromethyl)phenyl]-5-chloro-2-(trifluoromethyl)-1H-1,3-benzodiazole] | < 10 µg/mL | –
28 | FC(F)(F)c1ccc(-c2cc3[nH]c(C(F)(F)C(F)(F)F)nc3cc2Cl)c(C(F)(F)F)c1 [Compound 302, 6-[2,4-bis(trifluoromethyl)phenyl]-5-chloro-2-(pentafluoroethyl)-1H-1,3-benzodiazole] | < 2.5 µg/mL | –
29 | FC(F)(F)c1nc2cc(Cl)c(-c3ccc(Cl)cc3C(F)(F)F)cc2[nH]1 [Compound 304, 5-chloro-6-[4-chloro-2-(trifluoromethyl)phenyl]-2-(trifluoromethyl)-1H-1,3-benzodiazole] | 20 µg/mL | –
30 | FC(F)(F)c1cc(Cl)ccc1-c1cc2[nH]c(C(F)(F)C(F)(F)F)nc2cc1Cl [Compound 305, 5-chloro-6-[4-chloro-2-(trifluoromethyl)phenyl]-2-(pentafluoroethyl)-1H-1,3-benzodiazole] | 20 µg/mL | –
31 | FC(F)(F)c1cc(Cl)ccc1-c1cc2[nH]c(C(F)(F)C(F)(F)C(F)(F)F)nc2cc1Cl [Compound 306, 5-chloro-6-[4-chloro-2-(trifluoromethyl)phenyl]-2-(heptafluoropropyl)-1H-1,3-benzodiazole] | 20 µg/mL | –
32 | FC(F)(F)c1ccc(-c2cc3[nH]c(C(F)(F)F)nc3cc2Cl)c(Cl)c1 [Compound 307, 5-chloro-6-[2-chloro-4-(trifluoromethyl)phenyl]-2-(trifluoromethyl)-1H-1,3-benzodiazole] | < 2.5 µg/mL | –
33 | FC(F)(F)c1ccc(-c2cc3[nH]c(C(F)(F)C(F)(F)F)nc3cc2Cl)c(Cl)c1 [Compound 308, 5-chloro-6-[2-chloro-4-(trifluoromethyl)phenyl]-2-(pentafluoroethyl)-1H-1,3-benzodiazole] | < 10 µg/mL | –
34 | FC(F)(F)c1ccc(-c2cc3[nH]c(C(F)(F)C(F)(F)C(F)(F)F)nc3cc2Cl)c(Cl)c1 [Compound 309, 5-chloro-6-[2-chloro-4-(trifluoromethyl)phenyl]-2-(heptafluoropropyl)-1H-1,3-benzodiazole] | 20 µg/mL | –
